Experimental findings from patent publication US11028052B2, “Compounds useful as modulators of TRPM8” (Firmenich Incorporated, priority 2013, dated 2021) are described below.

Experiment [1] concerns the target T1, hTRPM8 (Homo sapiens, UniProt Q7Z2W7).
T1 construct: expressed in transfected cells
Nature of the experiment: hTRPM8 cell based agonist assay (section 3.1). Conditions: for EC50: mammalian cell line stably expressing TRPM8; for EC50 Ratio (WS3): relative to WS3. The source says: The present compounds are useful as modulators of TRPM8. The activity of TRPM8 can be readily monitored in cell based assays using fluorescent calcium-sensitive dyes, membrane potential dyes, or sodium-sensitive dyes. The activity of TRPM8 can also be monitored with electrophysiological set-ups, such as patch-clamping and two-electrode voltage clamping. A mammalian cell line derivative which stably expresses TRPM8 was used in biological assays in association with testing the present compounds with cool-tasting or -feeling properties (Servant et al. US 2007/0259354 A1 and references cited therein). Typical compound concentrations tested were 50 μM, 20 μM, 10 μM, 5 μM, 2 μM, 1 μM, 0.5 μM, 0.1 μM, 0.05 μM, 0.01 μM, and other concentration points in between. The present compounds have shown strong activity as agonists of hTRPM8. Assay results for compounds are illustrated in Table 1 below. Specifically, the Compounds listed in Table 3.1, i.e., Compounds 3.A1 to Compounds 3.D1 are the specific compounds as described above.

The target in experiment [2] is T1, hTRPM8. The experiment can be described thus: hTRPM8 cell line agonist assay (section 2.1). In kind it is cell-based. Particulars: for EC50: cell line stably expressing hTRPM8; for EC50 Ratio (WS3): relative to WS3 screened on the same day, greater than one = more potent than WS3. The procedure:
A cell line which stably expresses hTRPM8 was used in biological assays in association with testing the present compounds with cool-tasting or -feeling properties. Typical compound concentrations tested were 100 μM, 50 μM, 10 μM, 1 μM, and 0.5 μM. The present compounds have shown activity as agonists of hTRPM8. Assay results for compounds are illustrated in the table below. EC50 in micromoles (μM) is presented as well as the activity relative to WS3 (an established, commercially available cooling agent). […] A value of 1 indicates the compound is equipotent to WS3 in the assay. […] It is noted that Compounds 2.A1 to 2.S6 in the table below are the Examples described in this application. For example, Compound 2.B 1 is Example 2.2.

Another experiment has as its system panelists. Nature of the experiment: Sensory studies, cool line scale vs WS-3 (section 2.2). The experiment is classed as in vivo, human. Conditions: compound concentration compared in cooling with a known concentration of WS-3. An excerpt:
The results are presented relative to a known concentration of WS-3. A more specific detailed example of the sensory evaluation of selected examples are also presented below. […]

T1 sequence (Q7Z2W7 whole entry): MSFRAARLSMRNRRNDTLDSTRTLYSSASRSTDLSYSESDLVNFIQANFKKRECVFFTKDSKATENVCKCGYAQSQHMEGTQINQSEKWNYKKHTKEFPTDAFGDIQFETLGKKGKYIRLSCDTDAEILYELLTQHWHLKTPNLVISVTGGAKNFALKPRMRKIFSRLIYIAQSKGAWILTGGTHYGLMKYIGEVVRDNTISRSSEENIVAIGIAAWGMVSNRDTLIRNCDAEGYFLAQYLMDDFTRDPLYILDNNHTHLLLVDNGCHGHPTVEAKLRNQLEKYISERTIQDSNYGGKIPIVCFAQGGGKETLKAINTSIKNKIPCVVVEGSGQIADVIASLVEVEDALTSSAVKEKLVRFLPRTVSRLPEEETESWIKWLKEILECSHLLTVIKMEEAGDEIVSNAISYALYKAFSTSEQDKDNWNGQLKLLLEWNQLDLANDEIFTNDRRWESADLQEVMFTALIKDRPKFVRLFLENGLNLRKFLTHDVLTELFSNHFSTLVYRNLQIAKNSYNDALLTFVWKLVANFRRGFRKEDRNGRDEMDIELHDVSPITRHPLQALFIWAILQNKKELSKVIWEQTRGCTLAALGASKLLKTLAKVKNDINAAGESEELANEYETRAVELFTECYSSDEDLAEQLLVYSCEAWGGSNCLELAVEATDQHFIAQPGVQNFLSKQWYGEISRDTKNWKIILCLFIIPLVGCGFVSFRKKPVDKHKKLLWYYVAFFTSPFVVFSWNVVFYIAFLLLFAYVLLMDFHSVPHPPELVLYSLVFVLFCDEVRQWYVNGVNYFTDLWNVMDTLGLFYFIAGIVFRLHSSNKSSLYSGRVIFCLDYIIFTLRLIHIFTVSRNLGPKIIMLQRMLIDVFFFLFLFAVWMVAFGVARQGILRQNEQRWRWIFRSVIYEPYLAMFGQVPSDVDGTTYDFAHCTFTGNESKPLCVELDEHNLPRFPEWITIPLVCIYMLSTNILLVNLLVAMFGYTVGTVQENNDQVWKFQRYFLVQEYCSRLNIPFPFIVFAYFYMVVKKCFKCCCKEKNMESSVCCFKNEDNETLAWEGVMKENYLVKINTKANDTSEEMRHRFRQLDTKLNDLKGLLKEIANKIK

In general, EC50 refers to the concentration needed to bring the measured effect to its halfway point. A high value points to a need for much substance. `CC(C(=O)N(C)CC(=O)c1cccc(O)c1)C1CCCCC1` (stereo not drawn) [Example 3.A1]: on hTRPM8 [1], the response was half-maximal at 13 nM (EC50) and the “EC50 Ratio (WS3)” value was 581.6.

In the case of `CN(CC(=O)c1ccc(F)cc1)C(=O)C(C)(C)C1CCCCC1` [Example 3.E7], on hTRPM8 [1], the EC50 turned out to be 2160 nM and the “EC50 Ratio (WS3)” value is listed as 1.9.

With `CN1C(=O)N(CC(=O)c2ccc(O)cc2)C(=O)C1(C)C1CCCCC1` (stereo not drawn) [Compound 2.D3], on hTRPM8 [2], the EC50 was found to be 124 nM and the “EC50 Ratio (WS3)” value is given as 33.4.

Turning to `CN1C(=O)N(CC(=O)c2ccc[nH]2)C(=O)C1(C)C1CCCCC1` (stereo not drawn) [Compound 2.J3], the “Sensory Results” value with panelists stood at 15 uM~45 uM WS-3. In addition, at hTRPM8 [2], the EC50 stood at 166 nM and the “EC50 Ratio (WS3)” value stood at 32.1.

On to `C[C@H](C(=O)NNC(=O)c1ccccc1)C1CCCCC1` [Example 3.G1], for which, on hTRPM8 [1], the midpoint of the response, the EC50, lay at 6240 nM and the “EC50 Ratio (WS3)” value turned out to be 1.0.

With `CC1CCCC1C1(C)C(=O)N(CC(=O)c2cccc(O)c2)C(=O)N1C` (mixture of isomers) [Compound 2.G3], in the experiment on panelists, the “Sensory Results” value amounted to 15 uM < 45 uM WS-3. Moreover, on hTRPM8 [2], the EC50 was found to be 146 nM and the “EC50 Ratio (WS3)” value is 32.6.

In the case of `CC1CCCC1C1(C)C(=O)N(CC(=O)c2ccccc2)C(=O)N1C` (mixture of isomers) [Compound 2.L3], on hTRPM8 [2], the EC50 worked out at 182 nM and the “EC50 Ratio (WS3)” value is 25.9.

Regarding `CN1C(=O)N(CC(=O)c2cccnc2)C(=O)C1(C)C1CCCCC1` (stereo not drawn) [Compound 2.K3], the “Sensory Results” value with panelists is listed as 30 uM~45 uM WS-3. In addition, at hTRPM8 [2], the midpoint of the response, the EC50, lay at 172 nM and the “EC50 Ratio (WS3)” value was 30.1.

Regarding `CC(C(=O)N(C)CC(=O)c1ccccc1)C1CCCCC1` (stereo not drawn) [Example 3.A2], on hTRPM8 [1], the EC50 came out at 10 nM and the “EC50 Ratio (WS3)” value is on record as 577.8.

As for `CN1C(=O)N(CC(=O)c2ccc[nH]2)C(=O)C1(C)C1CC2CCC1C2` (single isomer, unassigned) [Compound 2.O3], on hTRPM8 [2], the EC50 came out at 223 nM and the “EC50 Ratio (WS3)” value is 21.6.

On to `CC(C)(C(=O)NCC(=O)c1cc(O)cc(O)c1)C1CCCCC1` [Example 3.A9], for which, at hTRPM8 [1], the EC50 is 87 nM and the “EC50 Ratio (WS3)” value is 66.5.

As to `CN1CC(C)(C2CCCCC2)C(=O)N(CC(=O)c2cccnc2)C1=O` (stereo not drawn) [Example 2.2, 5-cyclohexyl-1,5-dimethyl-3-(2-oxo-2-(pyridin-3-yl)ethyl)dihydropyrimidine-2,4(1H,3H)-dione], on hTRPM8 [2], it took 374 nM to reach a half-maximal effect (EC50) and the “EC50 Ratio (WS3)” value is given as 13.5.

For `CN1C(=O)N(CC(=O)c2cccc(O)c2)C(=O)C1(C)C1CC2CCC1C2` (stereo not drawn) [Compound 2.C3], at hTRPM8 [2], it took 100 nM to reach a half-maximal effect (EC50) and the “EC50 Ratio (WS3)” value came out at 49.1.

In the case of `CN1C(=O)N(CC(=O)c2ccccc2)C(=O)C1(C)C1CC2CCC1CC2` (single isomer, unassigned) [Compound 2.A3], at hTRPM8 [2], the EC50 amounted to 100 nM and the “EC50 Ratio (WS3)” value amounted to 73.1.

Take `CN1CC(C)(C2=CCCCC2)CN(CC(=O)c2ccccc2)C1=O` (stereo not drawn) [Compound 2.F1]: on hTRPM8 [2], the EC50 was 2880 nM and the “EC50 Ratio (WS3)” value amounted to 1.6.

With `CN1C(=O)N(CC(=O)c2ccccc2)C(=O)C1(C)C1CC2CCC1CC2` (stereo not drawn) [Compound 2.I3], at hTRPM8 [2], the EC50 was found to be 163 nM and the “EC50 Ratio (WS3)” value is 33.8.

With `CN1C(=O)N(CC(=O)c2ccccc2)C(=O)C1(C)C1=CCCCC1` (stereo not drawn) [Compound 2.F3], on hTRPM8 [2], the EC50 is 138 nM and the “EC50 Ratio (WS3)” value is listed as 44.0.

`CC(C)(C(=O)NCC(=O)c1cccc(F)c1)C1CCCCC1` [Example 3.B7]: on hTRPM8 [1], the EC50 worked out at 257 nM and the “EC50 Ratio (WS3)” value came out at 18.6.
